Patent US8058242B2, “Chimeric proteins with natriuretic activity” (The University of Queensland, priority 2004, dated 2011)
Values joined by “and” are separate entries in the source; they are usually repeats but may differ in a detail not shown here. Equal entries are not always repeated. Positions of bridges follow the written chain, without caps; N, C: chain ends. Residues, ends and D or L forms follow the SMILES beside them.

Key:
[1] = target: T1, Natriuretic Peptide Receptor-A (NPR-A) signaling in MDCK cells (Canis lupus familiaris, UniProt A0A8I3MHU3); format: cell-based, canine; conditions: stimulation of cGMP accumulation in MDCK cells
T1 sequence (A0A8I3MHU3 32-1060): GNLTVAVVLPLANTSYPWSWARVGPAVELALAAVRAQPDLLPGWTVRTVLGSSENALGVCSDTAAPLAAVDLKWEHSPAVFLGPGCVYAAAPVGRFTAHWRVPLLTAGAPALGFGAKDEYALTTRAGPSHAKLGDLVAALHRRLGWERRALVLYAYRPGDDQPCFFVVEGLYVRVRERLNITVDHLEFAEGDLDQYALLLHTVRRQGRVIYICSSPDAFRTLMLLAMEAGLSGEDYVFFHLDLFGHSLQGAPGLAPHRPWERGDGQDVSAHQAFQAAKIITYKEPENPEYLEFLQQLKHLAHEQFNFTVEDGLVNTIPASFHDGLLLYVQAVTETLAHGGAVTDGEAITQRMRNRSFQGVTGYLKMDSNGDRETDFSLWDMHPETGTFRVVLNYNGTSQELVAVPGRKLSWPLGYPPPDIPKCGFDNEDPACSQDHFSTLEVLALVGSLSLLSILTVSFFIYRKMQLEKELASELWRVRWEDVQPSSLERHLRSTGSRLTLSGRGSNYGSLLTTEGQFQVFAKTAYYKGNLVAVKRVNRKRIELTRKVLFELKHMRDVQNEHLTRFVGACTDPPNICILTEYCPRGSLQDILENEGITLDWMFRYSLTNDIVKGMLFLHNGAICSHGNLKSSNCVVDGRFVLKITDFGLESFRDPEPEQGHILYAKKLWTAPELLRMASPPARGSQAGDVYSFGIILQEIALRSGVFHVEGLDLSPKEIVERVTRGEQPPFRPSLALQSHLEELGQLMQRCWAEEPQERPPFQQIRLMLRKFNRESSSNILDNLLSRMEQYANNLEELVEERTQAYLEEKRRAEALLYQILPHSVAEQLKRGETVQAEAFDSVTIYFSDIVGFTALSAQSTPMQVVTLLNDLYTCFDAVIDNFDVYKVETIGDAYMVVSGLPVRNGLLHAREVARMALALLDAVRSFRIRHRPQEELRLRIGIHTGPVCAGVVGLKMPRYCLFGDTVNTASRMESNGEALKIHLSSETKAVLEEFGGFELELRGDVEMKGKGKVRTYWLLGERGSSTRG

conscious rabbits = experiment: Blood pressure and heart rate in conscious rabbits, intravenous infusion dose-response (Example 8); conditions: for Diastolic BP, Average Response SED / HR, Average Response SED / Mean BP (MAP), Average Response SED / Systolic BP, Average Response SED: average of the 3 doses 1.0, 2.0, 4.0 μg/kg/min; for Diastolic BP, mean difference from control / HR, mean difference from control / Mean BP, mean difference from control / Systolic BP, mean difference from control: 45 min
[2] = test system: endothelium-denuded aortic rings (GC-A mediated); experiment: Aortic ring relaxation, endothelium-denuded rings pre-contracted with 40 mM KCl (Example 3); design: species or system rat; conditions: endothelium-denuded rat aortas pre-contracted with 40 mM KCl; peptide 0.1 μM
Procedure: (§1) Male Sprague Dawley rats were killed and the descending thoracic aorta rapidly removed and flushed with physiological solution. After being cleared of adhering fat and connective tissue, 5 mm rings were mounted under 10 g resting tension, between two stainless steel hooks, in organ baths (37° C.) containing carbogenated (95% O2 and 5% CO2) physiological salt solution of the following composition (mM): NaCl, 118.4; NaHCO3, 25; glucose, 11; KCl, 4.7; MgSO4, 1.2; KH2PO4, 1.2 and CaCl2, 2.5. The lower hook was attached to a tissue holder and the upper hook to a force displacement transducer (Grass FTO3). Where indicated endothelial cells were removed by gentle rubbing of the intimal surface with a wire. To confirm the presence or absence of endothelial cells, tissues were precontracted with a sub-maximal concentration of phenylephrine (0.3 μM) and the response to acetylcholine (ACh, 10 μM) observed. Ach-induced relaxation greater than 80% of maximum indicated the presence of endothelium; whereas Ach-induced relaxation less than 10% indicated the absence of endothelium. Ring preparations under resting tension were conditioned by two contraction/relaxation cycles with 40 mM KCl, contracted by a third application of 40 mM KCl and then relaxed with different doses of the venom peptides. Responses were expressed as a percentage relaxation of the precontraction by KCl.

[3] = test system: endothelium-intact aortic rings (NPR-C mediated); experiment: Aortic ring relaxation, endothelium-intact rings pre-contracted with 40 mM KCl (Example 3); design: species or system rat; conditions: endothelium-intact rat aortas pre-contracted with 40 mM KCl; peptide 0.1 μM
Procedure: as §1

Plasmin = target: T2, Plasmin (Homo sapiens, UniProt P00747); experiment: Stability to enzymatic degradation by plasmin (Examples 7, 16); format: in vitro ADME; conditions: plasmin, 37° C.; for half-life at 125 μM: plasmin in Tris/HCl-NaCl buffer, read-out: HalfLife in plasmin
T2 construct: with 500 ng Endopeptidase (NEP) or 10 μg Plasmin
Procedure: The incubation buffer contained 100 mM Tris/HCl and 150 mM NaCl and the pH was adjusted to 7.2-7.4. In each assay, 100 μl of peptide [500 μM] was incubated with 300 μl buffer (with 500 ng Endopeptidase (NEP) or 10 μg Plasmin) at 37° C. 50 μl aliquots were taken at times 5 min, 30 min, 60 min, 90 min, 180 min and 24 h. The reaction was quenched by heating to 100° C. for 4 min and the remaining peptide concentrations measured by RP-HPLC. Note that the levels of Plasmin required to degrade these peptides was several thousands time the levels present in human plasma.
The stability of TDT and was investigated using the same enzymatic degradation assays (NEP, plasmin, pepsin) disclosed in Example 7. […] It is also evident that the increased NEP stability cannot be explained by the length of the tail region alone as the NEP cleavage site residues at the N-terminal end of the loop region.

[4] = after 1 hour recovery period, Table 10A

T2 sequence (P00747 97-580 partner limits assumed, species assumed): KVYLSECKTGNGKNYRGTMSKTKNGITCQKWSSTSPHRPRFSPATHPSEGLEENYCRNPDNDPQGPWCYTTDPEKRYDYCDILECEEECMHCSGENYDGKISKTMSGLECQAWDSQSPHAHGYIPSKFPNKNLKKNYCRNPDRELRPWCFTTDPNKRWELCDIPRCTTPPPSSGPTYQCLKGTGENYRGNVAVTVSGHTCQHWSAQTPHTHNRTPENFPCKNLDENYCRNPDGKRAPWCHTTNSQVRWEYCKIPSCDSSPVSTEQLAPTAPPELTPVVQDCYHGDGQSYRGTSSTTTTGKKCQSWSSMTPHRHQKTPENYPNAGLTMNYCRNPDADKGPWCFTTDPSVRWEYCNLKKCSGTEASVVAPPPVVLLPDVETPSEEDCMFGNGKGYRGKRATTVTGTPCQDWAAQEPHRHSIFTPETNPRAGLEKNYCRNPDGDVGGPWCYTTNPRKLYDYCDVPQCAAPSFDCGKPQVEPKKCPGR
T2 sequence (P00747 581-810 limits assumed, species assumed): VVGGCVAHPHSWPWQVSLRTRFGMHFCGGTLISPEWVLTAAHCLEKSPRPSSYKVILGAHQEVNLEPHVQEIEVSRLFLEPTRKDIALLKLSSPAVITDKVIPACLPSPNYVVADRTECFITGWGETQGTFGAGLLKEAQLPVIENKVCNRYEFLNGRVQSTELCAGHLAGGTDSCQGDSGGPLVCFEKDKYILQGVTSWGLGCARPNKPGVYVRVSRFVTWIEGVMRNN

Row | Structure (SMILES) | −Log10 EC50 (pEC50) ± Standard Error [1] | Recovery (MAP) (conscious rabbits; [4]) | Diastolic BP, Average Response SED (conscious rabbits) [mmHg] | HR, Average Response SED (conscious rabbits) [bpm] | Mean BP (MAP), Average Response SED (conscious rabbits) [mmHg] | Systolic BP, Average Response SED (conscious rabbits) [mmHg] | MAP at final dose (conscious rabbits; highest dose, Table 10A) | Diastolic BP, mean difference from control (conscious rabbits; i.v. infusion 1.0 μg/kg/min) [mmHg] | HR, mean difference from control (conscious rabbits; i.v. infusion 1.0 μg/kg/min) [bpm] | Mean BP, mean difference from control (conscious rabbits; i.v. infusion 1.0 μg/kg/min) [mmHg] | Systolic BP, mean difference from control (conscious rabbits; i.v. infusion 1.0 μg/kg/min) [mmHg] | Diastolic BP, mean difference from control (conscious rabbits; i.v. infusion 2.0 μg/kg/min) [mmHg] | HR, mean difference from control (conscious rabbits; i.v. infusion 2.0 μg/kg/min) [bpm] | Mean BP, mean difference from control (conscious rabbits; i.v. infusion 2.0 μg/kg/min) [mmHg] | Systolic BP, mean difference from control (conscious rabbits; i.v. infusion 2.0 μg/kg/min) [mmHg] | Diastolic BP, mean difference from control (conscious rabbits; i.v. infusion 4.0 μg/kg/min) [mmHg] | HR, mean difference from control (conscious rabbits; i.v. infusion 4.0 μg/kg/min) [bpm] | Mean BP, mean difference from control (conscious rabbits; i.v. infusion 4.0 μg/kg/min) [mmHg] | Systolic BP, mean difference from control (conscious rabbits; i.v. infusion 4.0 μg/kg/min) [mmHg] | percentage relaxation of the precontraction by KCl [2] [%] | further results
1 | CC[C@H](C)[C@@H]1NC(=O)[C@H](CCCCN)NC(=O)[C@H](Cc2c[nH]cn2)NC(=O)CNC(=O)[C@H](Cc2ccccc2)NC(=O)[C@@H](NC(=O)[C@@H]2CCCN2C(=O)[C@H](CC(=O)O)NC(=O)[C@H](Cc2ccc(O)cc2)NC(=O)[C@H](CCCCN)NC(=O)[C@@H](NC(=O)[C@@H](N)CCC(=O)O)C(C)C)CSSC[C@@H](C(=O)N2CCC[C@H]2C(=O)N[C@@H](CO)C(=O)N[C@@H](CC(C)C)C(=O)N[C@@H](CCCNC(=N)N)C(=O)N[C@@H](CC(=O)O)C(=O)N2CCC[C@H]2C(=O)N[C@@H](CCCNC(=N)N)C(=O)N2CCC[C@H]2C(=O)N[C@@H](CC(N)=O)C(=O)N[C@@H](C)C(=O)N2CCC[C@H]2C(=O)N[C@@H](CO)C(=O)N[C@H](C(=O)N[C@@H](CO)C(=O)N[C@@H](C)C(=O)O)[C@@H](C)O)NC(=O)CNC(=O)[C@H](CC(C)C)NC(=O)[C@H](CC(N)=O)NC(=O)[C@H](CO)NC(=O)[C@H](C(C)C)NC(=O)[C@H](Cc2c[nH]cn2)NC(=O)[C@H](CC(N)=O)NC(=O)[C@H]([C@@H](C)CC)NC(=O)[C@H](CCCNC(=N)N)NC(=O)[C@H](CC(=O)O)NC1=O [DNP, reference compound] (H-EVKYDPCFGHKIDRINHVSNLGCPSLRDPRPNAPSTSA-OH; disulfide 7-23; N-terminus and C-terminus assumed) | 8.080 ± 1.411 | 61.4 mm Hg | −9.0 ± 0.9 | 17.3 ± 6.4 | −14.2±0.8 | −13.3 ± 0.8 | 58.9 mm Hg | −8.5 | 17.5 | −13.0 | −11.7 | −6.9 | 25.9 | −12.6 | −11.9 | −11.7 | 8.5 | −17.2 | −16.4 | ~100 | Recovery Delta SED (MAP) (conscious rabbits; [4]): 2.5 ± 1.1 mm Hg; Treatment Effect, change of mean blood pressure during the infusion (conscious rabbits; highest dose, Table 10A, groups 1, 2A and 3): −17.2 mm Hg; percentage relaxation of the precontraction by KCl [3]: ~100%; half-life at 125 μM (Plasmin): 29.1 min; K (one phase exponential decay, best fit values) (Plasmin): 0.02381; PLATEAU (one phase exponential decay, best fit values) (Plasmin): 0.1675; SPAN (one phase exponential decay, best fit values) (Plasmin): 0.7306
2 | CC[C@H](C)[C@H](NC(=O)[C@H](CCCCN)NC(=O)[C@H](CO)NC(=O)[C@H](CC(=O)O)NC(=O)[C@@H](N)CO)C(=O)NCC(=O)N[C@@H](CC(N)=O)C(=O)NCC(=O)N[C@H]1CSSC[C@@H](C(=O)N[C@@H](CC(N)=O)C(=O)N[C@@H](CCCNC(=N)N)C(=O)N[C@H](C(=O)N[C@@H](CCSC)C(=O)N[C@@H](CCC(N)=O)C(=O)N[C@@H](CC(N)=O)C(=O)N2CCC[C@H]2C(=O)N2CCC[C@H]2C(=O)N[C@@H](CCCCN)C(=O)N[C@@H](CCCCN)C(=O)N[C@@H](Cc2ccccc2)C(=O)N[C@@H](CO)C(=O)NCC(=O)N[C@@H](CCC(=O)O)C(=O)O)[C@@H](C)CC)NC(=O)CNC(=O)[C@H](CC(C)C)NC(=O)CNC(=O)[C@H](CO)NC(=O)[C@H](C(C)C)NC(=O)[C@H](CO)NC(=O)CNC(=O)[C@H]([C@@H](C)CC)NC(=O)[C@H](CCCNC(=N)N)NC(=O)[C@H](CC(=O)O)NC(=O)[C@H](CC(C)C)NC(=O)[C@@H]2CCCN2C(=O)[C@H](Cc2ccccc2)NC(=O)CNC(=O)[C@H](Cc2ccccc2)NC1=O [TNPc] (H-SDSKIGNGCFGFPLDRIGSVSGLGCNRIMQNPPKKFSGE-OH; disulfide 9-25) | 6.928 ± 0.1122 | 56.6 mm Hg and 58.8 mm Hg | −12.5 ± 0.6 | 4.7 ± 3.8 | −14.9±0.7 | −13.2 ± 0.8 | 56.1 mm Hg and 58.9 mm Hg | −10.0 | −3.5 | −11.0 | −9.1 | −14.7 | 3.7 | −17.7 | −15.6 | −12.8 | 13.8 | −15.9 | −14.9 | ~100 | EC50 ([1]; read-out: EC50 (M) ± Standard Error): 1.84e-07 M; recovery of MAP, in words (conscious rabbits; 2 hours after infusion): remained suppressed for 2 hours; MAP at final dose (conscious rabbits; Table 10B): 58.9 mm Hg and 61.3 mm Hg; Recovery (MAP) (conscious rabbits; after a 2 hour recovery period, Table 10B): 58.8 mm Hg and 66.1 mm Hg; effective half life compared to BNP (conscious rabbits; bolus injection): 3 fold; time taken to recover to 50% of the peak response (conscious rabbits; bolus injection of 0.24 mg/kg TNPc or equivalent molar dose of BNP): 225 min; recovery of MAP from the hypotension, in words (conscious rabbits; one hour after the end of infusion): MAP had not changed; percentage relaxation of the precontraction by KCl [3]: ~100%; half-life at 125 μM (Plasmin): 23.6 min; K (one phase exponential decay, best fit values) (Plasmin): 0.02935; PLATEAU (one phase exponential decay, best fit values) (Plasmin): 0.1128; SPAN (one phase exponential decay, best fit values) (Plasmin): 0.8454
